Test results taken from US20060199853A1, “Analogs of 4-hydroxyisoleucine and uses thereof” (priority 2005, published 2006).

Legend:
[1] = test system: Diet Induced Obesity (DIO)-C57BL/6 Mice; test: Glycemic response to an OGTT after a single oral administration in DIO-C57BL/6 mice; format: in vivo; details: FIGS. 18A, 18B; for glycemic response following OGTT (delta glycemia AUC): 100 mg/kg, OGTT 10 minutes post-administration; for efficacy relative to the other compounds tested: OGTT
Protocol: Studies were conducted to evaluate the effect of acute oral administration of selected analogs according to the invention on the glycemic response of Diet-Induced Obesity (DIO)-C57BI/6 mice following an Oral Glucose Tolerance Test (OGTT).
In the first study, a total of 40 mice were used. The animals were randomized according to their basal glycemia values following a 5±0.5 hours fasting period and then distributed into 5 groups (1 control and 4 treated groups). Each group was composed of 8 animals. On the day of treatment, test articles were dissolved in reverse osmosis water and kept on ice. Control group (Group 1) received sterile water and Group 2 to 5 received 100 mg/kg of Compound #14a, Compound #128, Compound #133 and Compound #13e, respectively.
On the day of experimentation, animals were fasted ˜5 hours prior to the OGTT and then OGTT was performed at 10 minutes post-test article administration, by oral gavage administration of 40% glucose solution. Whole blood glucose levels were monitored using a hand-held glucometer prior to OGTT and for up to 2 hours post-lucose challenge.
In a separate experiment, the effect of acute oral administration of another analog, Compound #85(101a), on the glycemic response of DIO-mice was evaluated using the same experimental design.
FIGS. 18A and 18B show the glycemic response of mice following an OGTT performed after a single oral administration of Compounds #14a, #128, #133, #13e, and #85(101a). For both figures, delta glycemia values were calculated by substraction of pre-OGTT glycemia value. AUC values were obtained from the delta glycemia curves. Values represent the mean±SEM. N=8 animals/group. Ctl=Control DIO.*p<0.05; . . . p<0.001.

INS-1 cells = test: Glucose-dependent stimulation of insulin secretion in INS-1 cells; format: cell-based; details: for insulin stimulating activity: 0.5 mM compound, 4.5 mM glucose; for stimulation of insulin secretion: FIGS. 17A-17E, single concentration of 0.5 mM, 4.5 or 5 mM glucose
Protocol: Selected analogs according to the invention were tested in a blinded fashion for insulinotropic effect on INS-1 cells. Briefly, the cells were plated at a density of 2×10^5 in 12 well plates and incubated for 2 days in RPMI with 10% fetal calf serum and 11 mM glucose. The medium was removed on the third day post-plating and replaced with RPMI containing 3 mM glucose with 10% fetal calf serum. The cells were incubated for an additional 24 hours. On the fourth day post-plating, the medium was removed and replaced with Krebs-Ringer bicarbonate buffer containing 2 mM glucose. The cells were incubated for 30 min and the buffer was removed and replaced with Krebs-Ringer bicarbonate buffer with 4.5 mM glucose containing the compounds to be tested at a concentration of 0.5 mM. The cells were incubated for 1 hour. Basal insulin secretion was determined by incubating the cells in the presence of buffer with 2 mM glucose. The presence of glucose at 4.5 and 10 mM stimulated insulin secretion served as the reference control and positive control, respectively.
Selected analogs according to the invention were screened for insulinotropic effect on INS-1 pancreatic beta cells according to the method described in Example 3.

[2] = test system: differentiated 3T3-L1 adipocyte cells; test: Stimulation of glucose uptake (3H-deoxy-glucose) by differentiated 3T3-L1 adipocyte cells; format: cell-based; details: insulin at 10^-7 M; for stimulation of glucose uptake beyond that caused by insulin alone: FIG. 15B, 0.5 mM; for stimulation of glucose uptake: FIG. 15A, compounds at three concentrations, last 30 min of starvation
Protocol: Selected analogs according to the invention were tested for their effect on the uptake of ^3H-deoxy-glucose by differentiated 3T3-L1 adipocyte cells. Briefly, 3T3-L1 adipocyte cells (ATCC; Cl-173) were cultured in 12 well tissue culture plates for 3 days in order to reach confluence (Lakshmanan et al., Diabetes Mellitus: Methods and Protocols, Saire Ozcna, Ed., Humana Press Inc., Tonowa, N.J. 97-103, 2003). The culture medium was removed and replaced with differentiation medium (Green and Meuth, Cell 3:127-133, 1974; Madsen et al., Biochem. J. 375:539-549, 2003) and then the cells were incubated for an additional 9 days. The state of differentiation was confirmed by visual examination. Cell starvation was conducted for 5 hours by replacing the differentiation medium with one lacking fetal calf serum. During the last 30 minutes of the starvation period, the cells were exposed to compounds to be assayed at a range of concentrations. As a positive control, cells were exposed to insulin (0.0167 U/mL; Sigma; Cat. No. 15534) for the last 30 minutes of the starvation period Cells were exposed to 0.5 mM isoleucine are used as a control for background uptake. All treatments were performed in triplicate. Cells were washed, then fresh medium containing 16 μM ^3H-Deoxy-D-glucose (0.5 μCi/mL) and 10 μM 2-Deoxy-D-glucose was added and the cells were incubated for 10 min. Glucose uptake was stopped by washing the cells with ice cold PBS. The cells were lysed and specific activity in the lysate was determined relative to background uptake of ^3H-deoxy-glucose. Results were standardized on the basis of protein content per well.
FIG. 1 5B is another figure showing insulin stimulation of glucose uptake by insulin at 10^−7M, and by the analogs of the invention.

[3] = test system: Diet Induced Obesity (DIO)-C57BL/6 Mice; test: Glycemic response to an OGTT during chronic oral administration in DIO-C57BL/6 mice; format: in vivo; details: for time of maximal effect on control of glycemia: chronic oral administration twice daily
Protocol: Studies were conducted to evaluate the effect of a chronic oral administration of selected analogs according to the invention on the glycemic response of Diet-induced Obesity (DIO)-C57BI/6 mice following an Oral Glucose Tolerance Test (OGTT) performed weekly.
In a first study, a total of 56 animals were used. The animals were distributed into 7 groups (6 treated and 1 high fat diet control groups). Each group was composed of 8 animals. The mice were randomized according to basal glycemia values following a 5±0.5 hours fasting period. Compound #14a and #133 were dissolved in reverse osmosis water while Compound #13e was dissolved in 200 mM Bicarbonate/0.1% Tween-20 buffer, pH=9.0. Compounds #14a and #133 were kept at 4° C (administration to groups 2 & 3, and 4 & 5, respectively) while Compound #13e was freshly prepared daily. Control animals received sterile saline, twice daily (Groups 1 […]). Mice from groups 2 and 3 were treated twice daily with Compound #14a at 50 and 100 mg/kg, respectively. Animals from groups 4 and 5 received twice daily 50 and 100 mg/kg of Compound #133, respectively. Mice from groups 6 and 7 received 25 and 50 mg/kg of Compound #13e, twice daily, respectively.
On day 0, 7, 14, and 21, animals fasted for about 5 hours were challenged with an Oral Glucose Tolerance Test (OGTT) at 5 hours post-AM test article administration. Whole blood glucose levels were monitored using a hand-held glucometer prior to OGTT and for up to 2 hours post-glucose challenge. In a separate experiment, the same experimental design was used to evaluate the effect of chronic administration of Compound #85(101a) on the glycemic response of DIO-C57BI/6 mice following an Oral Glucose Tolerance Test (OGTT) performed after 7 days of treatment.
FIGS. 19A, 19B, 19C, and 19D are bar graphs showing glycemic response of mice following an OGTT performed after 7 days (FIGS. 19A and 19D), 14 days (FIG. 19B) or 21 days (FIG. 19C) of treatment after chronic oral administration of selected analogs according to the invention. For each figure, delta glycemia values were calculated by substraction of pre-OGTT glycemia value. AUC values were obtained from the delta glycemia curves. Values represent the mean±SEM. N=8 animals/group. Ctl=Control DIO.*p<0.05.

Compound | glycemic response following OGTT (delta glycemia AUC) [1] | stimulation of insulin secretion (INS-1 cells) | stimulation of glucose uptake [2] | further results
N[C@H](C(=O)O)[C@@H]1CCCC[C@H]1O [#13e] | significant effect on the glycemic control of DIO-mice | more effective to stimulate insulin secretion than parent compound #14a |  | efficacy relative to the other compounds tested [1]: most efficacious; insulin stimulating activity (INS-1 cells; FIG. 16A, 1 hour): most effective; insulin stimulating activity (INS-1 cells; FIG. 16B): most effective; stimulation of glucose uptake beyond that caused by insulin alone [2]: greater than the stimulation caused by the parent compound; glycemia increase following OGTT ([3]; 25 and 50 mg/kg twice daily, half the dose of the other treated groups): significantly reduced the glycemia increase in DIO-mice; hyperglycaemic response following OGTT ([3]; 25 and 50 mg/kg twice daily, Day 21, FIG. 19C): reduced significantly the hyperglycaemic response of animals; time of maximal effect on control of glycemia [3]: 14 days post-initiation of treatment
C[C@H]([C@H](N)C(=O)O)C(C)(C)O [#85(101a)] | significant effect on the glycemic control of DIO-mice |  |  | efficacy relative to the other compounds tested [1]: most efficacious; glycemic control following OGTT ([3]; 7 consecutive days of administration, statistically significant vs control, FIG. 19D): improved the glycemic control of DIO-mice
insulin [reference compound] |  |  | strongly promoted glucose uptake | 
CC(C)[C@H](NC[C@@H](C)O)C(=O)O [#133] | significant effect on the glycemic control of DIO-mice |  |  | time of maximal effect on control of glycemia [3]: 14 days post-initiation of treatment
NC(CC(O)C1CCCCC1)C(=O)O (centres unmarked) [#59] |  | more effective to stimulate insulin secretion than parent compound #14a |  | 
N[C@H](C(=O)O)[C@H]1CCCC[C@H]1O [#15e] |  | more effective to stimulate insulin secretion than parent compound #14a |  | 
O=C(O)[C@H]1C[C@@H](O)CN1 [#201] |  | more effective to stimulate insulin secretion than parent compound #14a |  | 
CC1C(O)CN[C@@H]1C(=O)O (some centres unmarked) [#22] |  | more effective to stimulate insulin secretion than parent compound #14a |  | 
NC(CC(O)c1ccccc1)C(=O)O (centres unmarked) [#61] |  | more effective to stimulate insulin secretion than parent compound #14a |  | 
C[C@@H]([C@H](C)O)[C@H](N)C(=O)O [#14a] | significant effect on the glycemic control of DIO-mice | significant insulin stimulating activity in all the experiments | stimulated glucose uptake at all three concentrations tested | insulin stimulating activity (INS-1 cells; FIG. 16A, 1 hour): significant insulin stimulating activity; stimulation of glucose uptake beyond that caused by insulin alone [2]: limited stimulation of glucose uptake beyond that caused by insulin alone; time of maximal effect on control of glycemia [3]: 14 days post-initiation of treatment
CC(=O)N[C@@H]1C(=O)O[C@@H](C)[C@@H]1C [#104] |  | more effective to stimulate insulin secretion than parent compound #14a |  | 
CC(O)C1C(O)CN[C@@H]1C(=O)O (some centres unmarked) [#33] |  |  | at least equivalent activity to the parent compound | 
C=CC(C)(C)C(N)C(=O)O (centres unmarked) [#102b] |  |  | at least equivalent activity to the parent compound | 
